According to ChEMBL document CHEMBL5346962, “Discovery of Sulanemadlin (ALRN-6924), the First Cell-Permeating, Stabilized α-Helical Peptide in Clinical Development” (J Med Chem, 2023):
The source made the active and inactive calls. No cut-off for these calls is given here.

Key:
[1] = Solubility of the compound in aqueous solution at pH 7.5 incubated for 1 hr by spectrophotometric analysis; assay type: physicochemical
[2] = Induction of cell cycle arrest in human CD34+ cells assessed as accumulation at S phase at 5 uM incubated for 24 hrs by flow cytometry (reference value: 27.5 +/- 5.8%); assay type: toxicity, cell-based; details: cd34-positive (myeloid/lymphoid) cell
[3] = test system: CD34-positive (myeloid/lymphoid) cell; assay: Protection against chemotherapy-induced cell cycle arrest in human CD34+ cells assessed as DNA damage by measuring gamma-H2AX level at 1 uM preincubated for 24 hrs followed by topotecan addition measured after 24 hrs; assay type: functional, cell-based; details: time 48.0 hrs
Fibroblast [4] = assay: Protection against chemotherapy-induced apoptosis in human fibroblast assessed as decrease in caspase-3/7 level preincubated for 16 hrs followed by oxaliplatin addition measured after 32 hrs; assay type: functional, cell-based; details: dose 4.6-10 µM, time 48.0 hrs
Fibroblast [5] = assay: Protection against chemotherapy-induced apoptosis in human fibroblast assessed as decrease in caspase-3/7 level preincubated for 16 hrs followed by vinblastine addition measured after 32 hrs; assay type: functional, cell-based; details: dose 4.6-10 µM, time 48.0 hrs
Fibroblast [6] = assay: Protection against chemotherapy-induced apoptosis in human fibroblast assessed as decrease in caspase-3/7 level preincubated for 16 hrs followed by actinomycin D addition measured after 32 hrs; assay type: functional, cell-based; details: dose 4.6-10 µM, time 48.0 hrs
SJSA-1 = assay: Antitumor activity against human SJSA-1 cells xenografted in athymic nu/nu mouse […] assessed as tumor growth inhibition administered intravenously twice a week measured for 15 days; assay type: functional, cell-based; details: dose 5-20 mg/kg, route iv, time 15.0 day
MCF7 [7] = assay: Antitumor activity against human MCF7 cells xenografted in athymic nu/nu mouse […] assessed as tumor growth inhibition administered intravenously twice a week measured for 30 days; assay type: functional, cell-based; details: dose 5-20 mg/kg, route iv, time 30.0 day
MV4-11 = assay: Antitumor activity against human MV4-11 cells xenografted in athymic nu/nu mouse model of AML assessed as tumor growth inhibition; assay type: functional, cell-based
MCF7 [8] = assay: Antitumor activity against human MCF7 cells xenografted in athymic nude BALB/c mouse assessed as increase in cPARP protein level at 20 mg/kg, iv by immunohistochemical analysis; assay type: functional, organism-based; details: time <= 48.0 hrs, TDE = time-dependent effect
MCF7 [9] = assay: Antitumor activity against human MCF7 cells xenografted in athymic nude BALB/c mouse assessed as tumor regression at 20 mg/kg, iv measured upto 48 hrs by immunohistochemical analysis; assay type: functional, organism-based
Bone marrow cell [10] = assay: Protection against cell cycle arrest at S phase in bone marrow cells of C57BL/6 mouse at 10 mg/kg, iv measured for 8 hrs by FACS analysis; assay type: functional, organism-based
Bone marrow cell [11] = assay: Upregulation of p21 mRNA level in bone marrow cells of C57BL/6 mouse at 2.4 mg/kg, iv measured for 24 hrs by qRT-PCR analysis; assay type: functional, organism-based
Bone marrow cell [12] = assay: Upregulation of serum MIC-1 level […] of C57BL/6 mouse at 2.4 mg/kg, iv administered every 8 hrs measured for 24 hrs by ELISA method; assay type: functional, organism-based
Bone marrow cell [13] = assay: Downregulation of Ki67 expression level in bone marrow cells of C57BL/6 mouse at 2.4 mg/kg, iv administered every 8 hrs measured for 16 hrs by immunohistochemical analysis; assay type: functional, organism-based
Mus musculus = assay: Protection against topotecan-induced crypt loss in gastrointestinal tract of C57BL/6 mouse at 2.4 mg/kg administered on day 0 to 4 and co-administered 30 mins prior to topotecan on day 1 to 4 followed by topotecan administration on day 5 measured on day 9 by H&E staining based analysis; assay type: functional, organism-based; details: time 9.0 day
MC-38 = assay: Antitumor activity against mouse MC38 cells allografted in C57BL/6 mouse assessed as reduction in tumor volume at 8 mg/kg administered on day 0 to 4 and co-administered 30 mins prior to topotecan on day 1 to 4 followed by topotecan administration on day 5 measured for 40 days; assay type: functional, organism-based; details: time 40.0 day
NCI-H211 = assay: Antitumor activity against human NCI-H211 cells xenografted in athymic nu/nu mouse assessed as reduction in tumor volume at 8 mg/kg administered on day 0 to 4 and co-administered 30 mins prior to topotecan on day 1 to 4 followed by topotecan administration on day 5 measured for 90 days; assay type: functional, organism-based; details: time 90.0 day
[14] = AUC (all) in mouse at 5 mg/kg by LC-MS/MS analysis; assay type: ADME, organism-based; set-up: dose 5 mg/kg; details: in vivo
[15] = Clearance in mouse at 5 mg/kg by LC-MS/MS analysis; assay type: ADME, organism-based; details: in vivo
[16] = Cmax in rat at 2.5 mg/kg by LC-MS/MS analysis; assay type: ADME, organism-based; set-up: dose 2.5 mg/kg; details: in vivo
[17] = Cmax in rat at 5 mg/kg by LC-MS/MS analysis; assay type: ADME, organism-based; set-up: dose 5 mg/kg; details: in vivo
[18] = AUC (all) in rat at 5 mg/kg by LC-MS/MS analysis; assay type: ADME, organism-based; set-up: dose 5 mg/kg; details: in vivo
[19] = Cmax in rat at 10 mg/kg by LC-MS/MS analysis; assay type: ADME, organism-based; set-up: dose 10 mg/kg; details: in vivo
[20] = Half life in rat at 10 mg/kg by LC-MS/MS analysis; assay type: ADME, organism-based; details: in vivo
[21] = Cmax in cynomolgous monkey at 5 mg/kg by LC-MS/MS analysis; assay type: ADME, organism-based, Macaca fascicularis; set-up: dose 5 mg/kg; details: cynomolgus monkey, in vivo
[22] = AUC (all) in cynomolgous monkey at 5 mg/kg by LC-MS/MS analysis; assay type: ADME, organism-based, Macaca fascicularis; set-up: dose 5 mg/kg; details: cynomolgus monkey, in vivo
[23] = Half life in cynomolgous monkey at 5 mg/kg by LC-MS/MS analysis; assay type: ADME, organism-based, Macaca fascicularis; details: cynomolgus monkey, in vivo
[24] = Clearance in cynomolgous monkey at 5 mg/kg by LC-MS/MS analysis; assay type: ADME, organism-based, Macaca fascicularis; details: cynomolgus monkey, in vivo
[25] = Half life in cynomolgous monkey at 10 mg/kg by LC-MS/MS analysis; assay type: ADME, organism-based, Macaca fascicularis; details: cynomolgus monkey, in vivo
[26] = Plasma protein binding in monkey at 2 to 50 uM; assay type: ADME, cell-free, Macaca mulatta; details: rhesus monkey, dose 2-50 µM, read-out: PPB (converted)
[27] = Plasma protein binding in human at 2 to 50 uM; assay type: ADME, cell-free; details: dose 2-50 µM, read-out: PPB (converted)
[28] = Plasma protein binding in mouse at 250 uM; assay type: ADME, cell-free; details: read-out: PPB (converted)
[29] = Plasma protein binding in human at 250 uM; assay type: ADME, cell-free; details: read-out: PPB (converted)
[30] = Plasma protein binding in human assessed as unbound fraction upto 150 uM; assay type: ADME, cell-free
[31] = Drug excretion in bile-duct cannulated rat assessed as ALRN-8714 metabolite elimination at 10 mg/kg, iv measured for 8 hrs by LC-MS/MS analysis; assay type: ADME, organism-based; details: in vivo
[32] = Half life in plasma of athymic nu/nu mouse xenografted with human SJSA-1 cells at 25 mg/kg, iv measured for 24 hrs by LC-MS-MS analysis; assay type: ADME, organism-based
[33] = Drug uptake in tumor of athymic nu/nu mouse xenografted with human SJSA-1 cells assessed as AUC (0 to 24 hrs) of metabolite ALRN-8714 at 25 mg/kg, iv measured for 24 hrs by LC-MS-MS analysis; assay type: ADME, organism-based, Neoplasm; set-up: dose 25 mg/kg, time 24 hrs, route iv; details: in vivo
[34] = Drug uptake in tumor of athymic nu/nu mouse xenografted with human SJSA-1 cells assessed as half life of metabolite ALRN-8714 at 25 mg/kg, iv measured for 24 hrs by LC-MS-MS analysis; assay type: ADME, organism-based, Neoplasm; details: in vivo
[35] = Toxicity in rat assessed as NOAEL administered twice weekly for 4 weeks; details: in vivo

In the case of `CC(=O)N[C@@H](CC(C)C)C(=O)N[C@H](C(=O)N[C@@H](Cc1ccccc1)C(=O)N[C@]1(C)CCCCCC/C=C/CCC[C@@](C)(C(=O)N[C@@H](C)C(=O)N[C@@H](C)C(=O)N[C@@H](C)C(=O)N[C@@H](C)C(=O)N[C@@H](C)C(=O)N[C@H](C)C(N)=O)NC(=O)[C@H](CC(C)C)NC(=O)[C@H](CCC(N)=O)NC(=O)[C@H](C)NC(=O)[C@H](Cc2c[nH]c3ccccc23)NC(=O)[C@H](Cc2ccc(O)cc2)NC(=O)[C@H](CCC(=O)O)NC1=O)[C@@H](C)O`, the solubility at 1 h [1] is reported as ≤ 75 µg/mL, the Activity [2] is reported as 0.22% and the Activity [3] is reported as “inactive”. The Activity (Fibroblast [4]) was “Dose-Dependent Effect”, the Activity (Fibroblast [5]) was “Dose-Dependent Effect” and the Activity (Fibroblast [6]) was “Dose-Dependent Effect”. For the same compound, the Activity (SJSA-1) was “Dose-Dependent Effect”, the Activity (MCF7 [7]) was “Dose-Dependent Effect” and the Activity (MV4-11) was “Dose-Dependent Effect”. The Activity (MCF7 [8]) was “Tde”, the Activity (MCF7 [9]) was “inactive” and the Activity (Bone marrow cell [10]) was “Active”. For the same compound, the Activity (Bone marrow cell [11]) was “Active”, the Activity (Bone marrow cell [12]) was “Active” and the Activity (Bone marrow cell [13]) was “Active”. For the same compound, the Activity (Mus musculus) was “Active”, the Activity (MC-38) was “Active” and the Activity (NCI-H211) was “Active”. It also gave an AUC [14] of 450 µg·h/mL, a clearance [15] of 0.183 mL/min/kg and a Cmax [16] of 49.9 µg/mL. The Cmax [17] was 95.9 µg/mL, the AUC [18] was 223 µg·h/mL and the Cmax [19] was 186 µg/mL. For the same compound, the half-life [20] was 3.8 h, the Cmax [21] was 137 µg/mL and the AUC [22] was 914 µg·h/mL. It also gave a half-life [23] of 4.9 h, a clearance [24] of 0.0983 mL/min/kg and a half-life [25] of 5.5 h. It also gave a fraction unbound at up to 50 µM [26] of 0.08, a fraction unbound at up to 50 µM [27] of 0.08 and a fraction unbound at 250 µM [28] of 0.02. The fraction unbound at 250 µM [29] was 0.19, the fraction unbound at up to 150 µM [30] was 0.03 and the Drug excretion [31] was “Active”. It also gave a half-life [32] of 2.8 h, an AUC [33] of 128 µg·h/g and a t1/2 [34] of 9 h. It also gave an NOAEL at 672 h [35] of 2.5 mg/kg.
